Data taken from patent US4215135A, “Antiinflammatory 2-substituted-1H-phenanthro[9,10-d]imidazoles” (E. I. Du Pont de Nemours and Company, priority 1979, dated 1980).

system: adjuvant-induced arthritis in rats; assay: Established adjuvant-induced arthritis in rats (A.A.); format: in vivo, Charles River Lewis male rats; conditions: Rattus norvegicus, 24 h; oral gavage, 7 daily doses; established adjuvant arthritis; uninjected left hind paw volume one day after last dose; read-out: A.A. ED50% (% paw volume reduction from control)

Row | SMILES | ED50 [mg/kg]
1 | CC(C)Cc1ccc(C(C)C(=O)O)cc1 (stereo not drawn) [Ibuprofen, reference compound] | 100
2 | CCCCC1C(=O)N(c2ccccc2)N(c2ccccc2)C1=O [Phenylbutazone, reference compound] | 10

same assay, conditions: Rattus norvegicus, po, 24 h, read-out: A.A. ED50% (% paw volume reduction from control)

Row | SMILES | ED50 [mg/kg]
3 | CC(=O)Oc1ccccc1C(=O)O [Aspirin, reference compound] | 305
4 | FC(F)C(F)(F)Sc1nc2c3ccccc3c3ccccc3c2[nH]1 [Example 2, 2-[(1,1,2,2-tetrafluoroethyl)thio]-1H-phenanthro[9,10-d]imidazole] | > 25
5 | O=S(=O)(c1nc2c3ccccc3c3ccccc3c2[nH]1)C(F)(F)C(F)F [Example 3, 2-[(1,1,2,2-Tetrafluoroethyl)sulfonyl]-1H-phenanthro-[9,10-d]-imidazole] | 28
6 | Fc1ccc2c(c1)c1cc(F)ccc1c1[nH]c(SC(F)(F)C(F)F)nc21 [Example 7, 6,9-Difluoro-2-[(1,1,2,2-tetrafluoroethyl)thio]-1H-phenanthro-[9,10-d]imidazole] | 0.45
7 | O=S(=O)(c1nc2c3ccc(F)cc3c3cc(F)ccc3c2[nH]1)C(F)(F)C(F)F [Example 8, 6,9-Difluoro-2-[(1,1,2,2-tetrafluoroethyl)sulfonyl]-1H-phenanthro[9,10-d]imidazole] | 0.8
8 | COc1ccc2c(c1)c(CC(=O)O)c(C)n2C(=O)c1ccc(Cl)cc1 [Indomethacin, reference compound] | 0.3

system: phenylquinone-induced writhing (pain) in mice; assay: Phenylquinone writhing test; format: in vivo, female white mice; conditions: Mus musculus; oral; phenylquinone i.p.; footnote: at 2 hours; read-out: ED50 (effective analgesic dose for 50% of the mice)
Method: A procedure for detecting and comparing the analgesic activity of compounds in this series and standard drugs for which there is a good correlation with human efficacy is the phenylquinone writhing test.
The phenylquinone writhing test, modified from Siegmund, et al., Proc. Soc. Exp. Biol. Med. 95, 729 (1957), was employed. A test compound suspended in 1% methylcellulose was given orally to fasted (17-21 hours) female white mice, 5-20 animals per double blind test. […] […] The effective analgesic dose for 50% of the mice (ED50) was calculated by the moving average method of Thompson, W. R., Bact. Rev. 11, 115-145 (1947).

Row | SMILES | ED50 [mg/kg]
9 | COc1ccc2c(c1)c1cc(OC)ccc1c1[nH]c(S(=O)(=O)C(F)(F)F)nc21 [Example 6, 6,9-Dimethoxy-2-(trifluoromethylsulfonyl)-1H-phenanthro-[9,10-d]imidazole] | 29
